Patent US20220313701A1, “MODULATORS OF TREX1” (Constellation Pharmaceuticals, Inc., priority 2019, published 2022)
pIC50: −log10 of the molar value.

Key:
full length human TREX1 = biological target: T1, full length human TREX1 (Homo sapiens, UniProt Q9NSU2); assay: TREX1 Biochemical Assay (fluorescence assay, degradation of dsDNA substrate); conditions: 150 pM TREX1, 60 nM dsDNA substrate, 25 minutes at room temperature
T1 construct: N-terminally His-Tev tagged full length human TREX1; His-Tev (His tag with TEV site) (N); made in house; host or cells: E. coli
T1 sequence (Q9NSU2 1-314): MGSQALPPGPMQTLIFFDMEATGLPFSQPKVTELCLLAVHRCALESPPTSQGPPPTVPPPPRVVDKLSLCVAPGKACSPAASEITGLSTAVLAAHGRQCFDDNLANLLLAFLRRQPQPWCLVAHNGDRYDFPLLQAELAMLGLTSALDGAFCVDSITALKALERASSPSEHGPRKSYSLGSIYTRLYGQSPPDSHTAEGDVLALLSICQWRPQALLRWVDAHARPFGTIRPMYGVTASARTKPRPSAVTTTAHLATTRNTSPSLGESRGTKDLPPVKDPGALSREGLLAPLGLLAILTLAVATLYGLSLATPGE
Procedure, shortened: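 N-terminally His-Tev-tagged enzyme expressed in E. coli, 150 pM, with 60 nM dual-labelled dsDNA (TEX615/quencher) in pH 7.4 Tris buffer with MgCl2, 1% DMSO; 10-point dose-response, 25 min at room temperature, then EDTA quench. Fluorescence at 615 nm (excitation 570 nm); IC50 from four-parameter fit against pre-quenched and no-inhibitor controls.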

[1] = biological target: T2, human TREX2 (residues M44-A279) (Homo sapiens, UniProt Q9BQ50); assay: TREX2 Biochemical Assay (fluorescence assay, degradation of dsDNA substrate); conditions: 2.5 nM TREX2, 60 nM dsDNA substrate, 25 minutes at room temperature
T2 construct: human TREX2 (residues M44-A279, expressed in E. coli); His-Tev (His tag with TEV site) (N); made in house; host or cells: E. coli
T2 sequence (Q9BQ50 44-279 isoform Q9BQ50-1): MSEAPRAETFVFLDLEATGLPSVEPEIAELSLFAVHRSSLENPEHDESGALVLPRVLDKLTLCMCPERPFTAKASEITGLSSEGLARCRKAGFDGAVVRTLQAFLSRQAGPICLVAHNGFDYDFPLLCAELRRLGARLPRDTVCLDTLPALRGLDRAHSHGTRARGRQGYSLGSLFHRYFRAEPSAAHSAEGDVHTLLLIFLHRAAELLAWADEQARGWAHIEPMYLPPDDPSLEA
Procedure, shortened: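 Final conditions: 2.5 nM His-Tev-tagged TREX2 (E. coli-expressed), 60 nM fluorophore/quencher-labelled dsDNA, 50 mM Tris pH 7.4, 150 mM NaCl, 100 mM MgCl2, 1% DMSO; 10-point compound dose-response. Incubated 25 min at room temperature, then EDTA-quenched; fluorescence read at ex 570/em 615 nm. IC50 from four-parameter fit against pre-quenched and no-inhibitor controls.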

pIC50 (full length human TREX1) | pIC50 [1] | SMILES
5.00 to 6.00 | < 4.00 | Cc1nn(C)cc1-c1cc(N2CCC(O)(c3ccc(F)c(F)c3)CC2)cnn1 [Example 87, 4-(3,4-difluorophenyl)-1-(6-(1,3-dimethyl-1H-pyrazol-4-yl)pyridazin-4-yl)piperidin-4-ol]
6.00 to 7.00 | < 4.00 | Cc1nn(C)cc1-c1cnnc(N2CCC(O)(c3ccc(F)c(F)c3)CC2)c1 [Example 88, 4-(3,4-difluorophenyl)-1-(5-(1,3-dimethyl-1H-pyrazol-4-yl)pyridazin-3-yl)piperidin-4-ol]
5.00 to 6.00 | < 4.00 | Cc1ncc(-c2cnn(C)c2)nc1N1CCC(O)(c2ccc(F)c(F)c2)CC1 [Example 89, 4-(3,4-difluorophenyl)-1-(3-methyl-6-(1-methyl-1H-pyrazol-4-yl)pyrazin-2-yl)piperidin-4-ol]
6.00 to 7.00 | < 4.00 | Cc1ncc(N2CCC(O)(c3ccc(F)c(F)c3)CC2)nc1-c1cnn(C)c1 [Example 90, 4-(3,4-difluorophenyl)-1-(5-methyl-6-(1-methyl-1H-pyrazol-4-yl)pyrazin-2-yl)piperidin-4-ol]
6.00 to 7.00 | < 4.00 | Cc1nc(-c2cn(C)nc2C)c(F)c(N2CCC(O)(c3ccc(F)c(F)c3)CC2)n1 [Example 91, 4-(3,4-difluorophenyl)-1-(6-(1,3-dimethyl-1H-pyrazol-4-yl)-5-fluoro-2-methylpyrimidin-4-yl)piperidin-4-ol]
6.00 to 7.00 | < 4.00 | Cc1cc(C2(O)CCN(c3cncc(-c4cn(C)nc4C)n3)CC2)ccc1F [Example 92, 1-(6-(1,3-dimethyl-1H-pyrazol-4-yl)pyrazin-2-yl)-4-(4-fluoro-3-methylphenyl)piperidin-4-ol]
5.00 to 6.00 | < 4.00 | Cc1nn(C)cc1-c1nnc(N2CCC(O)(c3ccc(F)c(F)c3)CC2)s1 [Example 95, 4-(3,4-difluorophenyl)-1-(5-(1,3-dimethyl-1H-pyrazol-4-yl)-1,3,4-thiadiazol-2-yl)piperidin-4-ol]
6.00 to 7.00 | < 4.00 | Cc1nn(C)cc1-c1nsc(N2CCC(O)(c3ccc(F)c(F)c3)CC2)n1 [Example 96, 4-(3,4-difluorophenyl)-1-(3-(1,3-dimethyl-1H-pyrazol-4-yl)-1,2,4-thiadiazol-5-yl)piperidin-4-ol]
5.00 to 6.00 | < 4.00 | Cc1nn(C)cc1-c1csc(N2CCC(O)(c3ccc(F)c(F)c3)CC2)n1 [Example 97, 4-(3,4-difluorophenyl)-1-(4-(1,3-dimethyl-1H-pyrazol-4-yl)thiazol-2-yl)piperidin-4-ol]
6.00 to 7.00 | < 4.00 | Cc1nn(C)cc1-c1nc(N2CCC(O)(c3ccc(F)c(F)c3)CC2)sc1C(N)=O [Example 98, 2-(4-(3,4-difluorophenyl)-4-hydroxypiperidin-1-yl)-4-(1,3-dimethyl-1H-pyrazol-4-yl)thiazole-5-carboxamide]
6.00 to 7.00 | < 4.00 | Cc1nn(C)cc1-c1c[nH]c(=O)c(N2CCC(O)(c3ccc(F)c(F)c3)CC2)n1 [Example 99, 3-(4-(3,4-difluorophenyl)-4-hydroxypiperidin-1-yl)-5-(1,3-dimethyl-1H-pyrazol-4-yl)pyrazin-2(1H)-one]
6.00 to 7.00 | < 4.00 | Cc1nc(-c2cn(C)nc2-c2ccccc2)cc(N2CCC(O)(c3ccc(F)c(F)c3)CC2)n1 [Example 100, 4-(3,4-difluorophenyl)-1-(2-methyl-6-(1-methyl-3-phenyl-1H-pyrazol-4-yl)pyrimidin-4-yl)piperidin-4-ol]
6.00 to 7.00 | < 4.00 | Cc1nc(-c2cn(C)nc2Cc2ccccc2)cc(N2CCC(O)(c3ccc(F)c(F)c3)CC2)n1 [Example 101, 1-(6-(3-benzyl-1-methyl-1H-pyrazol-4-yl)-2-methylpyrimidin-4-yl)-4-(3,4-difluorophenyl)piperidin-4-ol]

More lines, now with the values behind:

SMILES | pIC50 (full length human TREX1) | pIC50 [1]
O=C(NCC(O)c1ccccc1)c1cncc(N2CCC(O)(c3ccc(F)cc3)CC2)n1 (centres unmarked) [Example 71, 6-(4-(4-fluorophenyl)-4-hydroxypiperidin-1-yl)-N-(2-hydroxy-2-phenylethyl)pyrazine-2-carboxamide] | 5.00 to 6.00 | < 4.00
Cc1cnn(-c2cncc(N3CCC(O)(c4ccc(F)cc4)CC3)n2)c1 [Example 72, 4-(4-fluorophenyl)-1-(6-(4-methyl-1H-pyrazol-1-yl)pyrazin-2-yl)piperidin-4-ol] | 5.00 to 6.00 | < 4.00
OC1(c2ccccc2)CCN(c2cncc(-n3cccn3)n2)CC1 [Example 73, 1-(6-(1H-pyrazol-1-yl)pyrazin-2-yl)-4-phenylpiperidin-4-ol] | < 5.00 | < 4.00
OC1(c2ccccn2)CCN(c2cncc(-n3cccn3)n2)CC1 [Example 74, 1-(6-(1H-pyrazol-1-yl)pyrazin-2-yl)-4-(pyridin-2-yl)piperidin-4-ol] | < 5.00 | < 4.00
OC1(c2cccnc2)CCN(c2cncc(-n3cccn3)n2)CC1 [Example 75, 1-(6-(1H-pyrazol-1-yl)pyrazin-2-yl)-4-(pyridin-3-yl)piperidin-4-ol] | < 5.00 | < 4.00
OC1(c2ccncc2)CCN(c2cncc(-n3cccn3)n2)CC1 [Example 76, 1-(6-(1H-pyrazol-1-yl)pyrazin-2-yl)-4-(pyridin-4-yl)piperidin-4-ol] | < 5.00 | < 4.00
OC1(c2ccc(F)cc2)CCN(c2cncc(N3CCCC3)n2)CC1 [Example 78, 4-(4-fluorophenyl)-1-(6-(pyrrolidin-1-yl)pyrazin-2-yl)piperidin-4-ol] | < 5.00 | < 4.00
OC1(c2ccc(F)cc2)CCN(c2cccc(-n3cccn3)n2)CC1 [Example 79, 1-(6-(1H-pyrazol-1-yl)pyridin-2-yl)-4-(4-fluorophenyl)piperidin-4-ol] | 5.00 to 6.00 | < 4.00
OC1(c2ccc(F)cc2)CCN(c2nccc(-n3cccn3)n2)CC1 [Example 80, 1-(4-(1H-pyrazol-1-yl)pyrimidin-2-yl)-4-(4-fluorophenyl)piperidin-4-ol] | 5.00 to 6.00 | < 4.00
OC1(c2ccc(F)cc2)CCN(c2ccc3nccn3n2)CC1 [Example 81, 4-(4-fluorophenyl)-1-(imidazo[1,2-b]pyridazin-6-yl)piperidin-4-ol] | 5.00 to 6.00 | < 4.00
OC1(c2ccc(F)cc2)CCN(c2cnc3ccccc3n2)CC1 [Example 82, 4-(4-fluorophenyl)-1-(quinoxalin-2-yl)piperidin-4-ol] | 5.00 to 6.00 | < 4.00
OC1(c2ccc(F)cc2)CCN(c2ccc3ccccc3n2)CC1 [Example 83, 4-(4-fluorophenyl)-1-(quinolin-2-yl)piperidin-4-ol] | < 5.00 | < 4.00
OC1(c2ccc(F)cc2)CCN(c2cncc(Cl)n2)CC1 [Example 84, 1-(6-chloropyrazin-2-yl)-4-(4-fluorophenyl)piperidin-4-ol] | 5.00 to 6.00 | < 4.00
COc1cc(N2CCC(O)(c3ccc(F)cc3)CC2)ncn1 [Example 85, 4-(4-fluorophenyl)-1-(6-methoxypyrimidin-4-yl)piperidin-4-ol] | 5.00 to 6.00 | < 4.00
OC1(c2ccc(F)cc2)CCN(c2ccccn2)CC1 [Example 86, 4-(4-fluorophenyl)-1-(pyridin-2-yl)piperidin-4-ol] | < 5.00 | < 4.00
Cc1nn(C)cc1-c1cc(C(N)=O)cc(N2CCC(O)(c3cc(F)c(F)c(F)c3)CC2)n1 [Example 93, 2-(1,3-dimethyl-1H-pyrazol-4-yl)-6-(4-hydroxy-4-(3,4,5-trifluorophenyl)piperidin-1-yl)isonicotinamide] | 6.00 to 7.00 | < 4.00
Cc1nn(C)cc1-c1cc(C(N)=O)cc(N2CCC(O)(c3ccc(F)c(Cl)c3)CC2)n1 [Example 94, 2-(4-(3-chloro-4-fluorophenyl)-4-hydroxypiperidin-1-yl)-6-(1,3-dimethyl-1H-pyrazol-4-yl)isonicotinamide] | 6.00 to 7.00 | < 4.00
Cc1nc(N2CCC(O)(c3ccc(F)c(F)c3)CC2)cc(N2CCOC[C@H]2c2ccccc2)n1 [Example 104, (R)-4-(3,4-difluorophenyl)-1-(2-methyl-6-(3-phenylmorpholino)pyrimidin-4-yl)piperidin-4-ol] | 5.00 to 6.00 | < 4.00
